Experimental data taken from US4407803A, “Antiinflammatory 1-(quinolinyl)-2-pyrazoline derivatives” (Abbott Laboratories, priority 1981, dated 1983).

Tests used:
dermal Arthus reaction = assay: reverse passive Arthus assay in rats (dermal lesion); assay type: in vivo, Male Sprague-Dawley rats; details: 100 mg/kg, oral, 30 min before anti-B.S.A.; lesion measured at four hours
Method: Proc. 35, 774 (1976). Each compound was administered orally to a group of four animals.
The […] passive Arthus reaction test in rats is conducted as follows: Male Sprague-Dawley rats weighing approximately 130-160 g. are used, 4 rats per group. All animals are injected intravenously with 0.5 ml. 0.075% Bovine Serum Albumin (B.S.A.)+2% Evans Blue solution. Each rat then receives an oral dose of drug; one drug is administered per group.
Thirty minutes subsequent to drug dosing, each animal is injected intradermally with 0.05 ml. 1.44% Anti-B.S.A. into the dorsal skin. Four hours later the animals are sacrificed, the dorsal skin reflexed, and the lesion excised. Two perpendicular diameters of each lesion are measured. The average diameters of the lesions from the treated groups are compared with the average diameters from the control group to determine any drug effect.

carrageenin pleurisy = assay: modification of the carrageenin pleurisy assay (reduction in accumulation of exudate volume and leukocytes); assay type: in vivo; details: for % Inhibition Cells: leukocytes
Description: The compounds of the present invention have anti-inflammatory activity and inhibitory effect against Type III hypersensitivity reaction. These compounds are useful for the therapy of rheumatoid arthritis, other inflammatory conditions, Type III hypersensitivity diseases and in diseases in which polymorphonuclear leukocytes accumulation contributes to the pathology. The anti-inflammatory activity of these compounds was established by using a modification of the carrageenin pleurisy assay described by Vinegar et al. Proc. Soc. Exp. Biol. Med. 143:711 (1973).

Structure (SMILES) | % Inhibition of lesion of dermal Arthus reaction (dermal Arthus reaction) | % Inhibition Volume exudates (carrageenin pleurisy; Dose 60 (dose unit not given)) | % Inhibition Cells (carrageenin pleurisy; Dose 60 (dose unit not given)) | % Inhibition Volume exudates (carrageenin pleurisy; Dose 100 (dose unit not given)) | % Inhibition Cells (carrageenin pleurisy; Dose 100 (dose unit not given))
N=C1CCN(c2ccc3ccccc3n2)N1 [1-(2'-quinolinyl)-3-iminopyrazolidine, 1-(2'-quinolinyl)-3-imino-pyrazolidine] | 72% |  |  |  | 
N=C1CCN(c2cnc3ccccc3c2)N1 [1-(3'-quinolinyl)-3-iminopyrazolidine, 1-(3'-Quinolinyl)-3-iminopyrazolidine] | 37% | 86% | 71% |  | 
CCCCC1C(=O)N(c2ccccc2)N(c2ccccc2)C1=O [Phenylbutazone, reference compound] |  |  |  | 59% | 13%
N=C1CCN(c2ccnc3cc(Cl)ccc23)N1 [1-(7'-chloro-4'-quinolinyl)-3-imino pyrazolidine] | 53% |  |  |  | 
